Patent publication US5348965A, “N-substituted azaheterocyclic carboxylic acids” (Novo Nordisk A/S, priority 1991, dated 1994)
Where a name gives a salt, the structure may show the parent alone.

test system: [^3 H]-GABA uptake; test: in vitro inhibition of [^3 H]-GABA uptake (method of Fjalland); type: biochemical; settings: Male wistar rat cortical tissue homogenate; tris HCl buffer pH 7.5; 60 minutes at 30° C.
Experimental: Values for in vitro inhibition of [^3 H]-GABA uptake for the invention compounds were assessed essentially by the method of Fjalland (Acta Pharmacol. Toxicol. 1978, 42, 73-76). Male wistar rat cortical tissue was gently homogenized by hand using a glass/PTFE homogenizer in 10 volumes of 0.32 M sucrose. Incubation was performed in a 40 mM tris HCl buffer (pH 7.5 at 30° C.) containing […], 4 mM MgSO4, […] and 10 mM glucose, for 60 minutes at 30° C. Values for inhibition of GABA uptake for some representative compounds are recorded in Table I.

SMILES | IC50 [nM]
O=C(O)[C@@H]1CCCN(CCCOCC=C2c3ccccc3CCc3ccccc32)C1 [Example 5, (R)-N-(3-(2-(10,11-Dihydro-5H-dibenzo[a,d]cyclohepten-5-ylidene)ethoxy)-1-propyl)-3-piperidinecarboxylic acid hydrochloride] | 900
O=C(O)[C@@H]1CCCN(CCON=C2c3ccccc3CCc3ccccc32)C1 [Example 7, (R)-N-(2-(((10,11-Dihydro-5H-dibenzo[a,d]cyclohepten-5-ylidene)amino)oxy)ethyl)-3-piperidinecarboxylic acid hydrochloride] | 1130

The remaining lines, values ahead:

IC50 [nM] | SMILES
222 | O=C(O)[C@@H]1CCCN(CCOCCN2c3ccccc3CCc3ccccc32)C1 [Example 1, (R)-N-(2-(2-(10,11-Dihydro-5H-dibenz[b,f]azepin-5-yl)ethoxy)ethyl)-3-piperidinecarboxylic acid hydrochloride]
306 | O=C(O)[C@@H]1CCCN(CCOCCN2c3ccccc3Sc3ccccc32)C1 [Example 2a, (R)-N-(2-(2-(10H-Phenothiazin-10-yl)ethoxy)ethyl)-3-piperidinecarboxylic acid hydrochloride]
119 | O=C(O)[C@@H]1CCCN(CCOCCN2c3ccccc3Sc3ccc(Cl)cc32)C1 [Example 2c, (R)-N-(2-(2-(2-Chloro-10H-phenothiazin-10-yl)ethoxy)ethyl)-3-piperidinecarboxylic acid hydrochloride]
754 | O=C(O)[C@@H]1CCCN(CCOCC=C2c3ccccc3CCc3ccccc32)C1 [Example 3, (R)-N-(2-(2-(10,11-Dihydro-5H-dibenzo[a,d]cyclohepten-5-ylidene)ethoxy)ethyl)-3-piperidinecarboxylic acid hydrochloride]

test system: GABA uptake; test: not given; settings: oral; Yunger et al., J. Pharm. Exp. Ther. 1984, 228, 109; cited from earlier work

SMILES | orally active inhibition of GABA uptake
O=C(O)C1CCCN(CCC=C(c2ccccc2)c2ccccc2)C1 (centres unmarked) [SK&F 89976A, N-(4,4-diphenyl-3-buten-1-yl)nipecotic acid] | orally active inhibitors of GABA uptake
O=C(O)C1=CCCN(CCC=C(c2ccccc2)c2ccccc2)C1 [SK&F 100330A, N-(4,4-diphenyl-3-buten-1-yl)guvacine] | orally active inhibitors of GABA uptake
O=C(O)CC1CCN(CCC=C(c2ccccc2)c2ccccc2)C1 (stereo not drawn) [SK&F 100561, N-(4,4-diphenyl-3-buten-1-yl)-homo-β-proline] | orally active inhibitors of GABA uptake
O=C(O)C1CCCN(CCC=C(c2ccccc2)c2cccs2)C1 (centres unmarked) [SK&F 100604J, N-(4-phenyl-4-(2-thienyl)-3-buten-1-yl)nipecotic acid] | orally active inhibitors of GABA uptake

test system: GABA uptake; test: not given; settings: from the synaptic cleft into presynaptic nerve terminals and glial cells; cited from earlier work

SMILES | inhibition of GABA uptake
O=C(O)C1CCCNC1 (centres unmarked) [3-piperidinecarboxylic acid] | potent inhibitor of GABA uptake
